In ChEMBL document CHEMBL1158039, “Chemical constituents from the peels of Citrus sudachi” (2006) one finds zone of inhibition data, which are given here for four compounds.

Each structure is given as a SMILES string.

Type in all cases: functional
Assay [1] has as its system Helicobacter pylori. Kind of assay: Antimicrobial activity against Helicobacter pylori ATCC 43504 at 100 ug/disk after 4 days by disk diffusion method. The following applies: ATCC 43504, 96 h, read-out: IZ.
The subject of assay [2] is Staphylococcus aureus. Put plainly: Antimicrobial activity against methicillin-resistant Staphylococcus aureus COL at 100 ug/disk after 24 hrs by disk diffusion method. The conditions noted are these: read-out: IZ. On the technique in general: A growth-free zone around the sample is the usual read-out of agar diffusion tests.
Assay [3] has as its system Staphylococcus aureus. Kind of assay: Antimicrobial activity against methicillin-resistant Staphylococcus aureus 5 at 100 ug/disk after 24 hrs by disk diffusion method. The conditions noted are these: read-out: IZ.
Assay [4] concerns Staphylococcus aureus. Put plainly: Antimicrobial activity against methicillin-resistant Staphylococcus aureus COL at 20 ug/disk after 24 hrs by disk diffusion method. The conditions noted are these: read-out: IZ.
Assay [5] has as its system Staphylococcus aureus. Kind of assay: Antimicrobial activity against methicillin-resistant Staphylococcus aureus 5 at 20 ug/disk after 24 hrs by disk diffusion method. The conditions noted are these: read-out: IZ.
Assay [6] concerns Helicobacter pylori. Kind of assay: Antimicrobial activity against Helicobacter pylori ATCC 43504 at 0.25 ug/disk after 4 days by disk diffusion method. The conditions noted are these: ATCC 43504, 96 h, read-out: IZ.

Turning to `COc1c(O)c(OC)c2oc(-c3ccc(O)cc3)cc(=O)c2c1O`, the zone of inhibition at 100 µg/disc in the assay with Helicobacter pylori [1] stood at 10.5 mm; in the assay with Staphylococcus aureus [2], 12.5 mm; in the assay with Staphylococcus aureus [3] it was 23.8 mm.

As for `CC(=O)OCC1=C(C(=O)O)N2C(=O)[C@@H](NC(=O)CSc3ccncc3)[C@H]2SC1` [CEPHAPIRIN], the zone of inhibition at 20 µg/disc worked out at 8.2 mm in the assay on Staphylococcus aureus [4] and 9.4 mm in the assay with Staphylococcus aureus [5].

Take `COc1cc(-c2cc(=O)c3c(O)c(OC)c(O)c(OC)c3o2)ccc1O` [SUDACHITIN]: the zone of inhibition at 100 µg/disc with Helicobacter pylori [1] was found to be 14 mm; in the assay with Staphylococcus aureus [2], 12 mm; in the assay with Staphylococcus aureus [3], 25.4 mm.

Take `CC1(C)S[C@@H]2[C@H](NC(=O)[C@H](N)c3ccc(O)cc3)C(=O)N2[C@H]1C(=O)O` [AMOXICILLIN]: the zone of inhibition at 0.25 µg/disc in the assay with Helicobacter pylori [6] was 33 mm.
